# Values of other authors, collected in PubChem BioAssay AID1259409 (Chemical Carcinogenesis Research Information System (CCRIS), 2018).
# Test system: rodent chemically induced tumor inhibition, incidence and multiplicity
# Assay: CCRIS tumor inhibitor studies
structure (smiles),measurement,setting,value
Cn1c(=O)c2c(ncn2C)n(C)c1=O,"tumour outcome (control, treated, inhibition, significance)","Carcinogen: DIETHYLNITROSAMINE, 55-18-5, Dose [Inhibitor]: 0, 600 MG/L IN DRINKING WATER BEGINNING 3 D PRIOR TO FIRST CARCINOGEN DOSE AND CONTINUING TO 14 D POST LAST CARCINOGEN D, Route [Inhibitor]: ORAL, Species: RAT, Strain/Sex: BD6/FEMALE, Target Tissue: Type of Lesion: ESOPHAGUS: TUMOR, Dose [Carcinogen]: 80 MG/KG BW 1/WK FOR 7 WK, Promoter: NONE USED","25%, 11%, 56%, not significant"
same,"tumour outcome (control, treated, inhibition, significance)","Carcinogen: DIETHYLNITROSAMINE, 55-18-5, Dose [Inhibitor]: 0, 600 MG/L IN DRINKING WATER BEGINNING 3 D PRIOR TO FIRST CARCINOGEN DOSE AND CONTINUING TO 14 D POST LAST CARCINOGEN D, Route [Inhibitor]: ORAL, Species: RAT, Strain/Sex: BD6/FEMALE, Target Tissue: Type of Lesion: ESOPHAGUS: TUMOR, Dose [Carcinogen]: 80 MG/KG BW 1/WK FOR 8 WK, Promoter: NONE USED","18%, 22%, -22%, not significant"
same,"tumour outcome (control, treated, inhibition, significance)","Carcinogen: DIETHYLNITROSAMINE, 55-18-5, Dose [Inhibitor]: 0, 600 MG/L IN DRINKING WATER BEGINNING 3 D PRIOR TO FIRST CARCINOGEN DOSE AND CONTINUING TO 14 D POST LAST CARCINOGEN D, Route [Inhibitor]: ORAL, Species: RAT, Strain/Sex: BD6/FEMALE, Target Tissue: Type of Lesion: LIVER: TUMOR, Dose [Carcinogen]: 80 MG/KG BW 1/WK FOR 7 WK, Promoter: NONE USED","64%, 56%, 13%, not significant"
same,"tumour outcome (control, treated, inhibition, significance)","Carcinogen: DIETHYLNITROSAMINE, 55-18-5, Dose [Inhibitor]: 0, 600 MG/L IN DRINKING WATER FOR DURATION OF STUDY BEGINNING 4 D POST CARCINOGEN TREATMENT (STUDY DURATION: 6 MO), Route [Inhibitor]: ORAL, Species: RAT, Strain/Sex: BD6/FEMALE, Target Tissue: Type of Lesion: LIVER: TUMOR, Dose [Carcinogen]: 80 MG/KG BW 1/WK FOR 9 WK, Promoter: NONE USED","100%, 100%, 0%, not significant"
same,"tumour outcome (control, treated, inhibition, significance)","Carcinogen: DIETHYLNITROSAMINE, 55-18-5, Dose [Inhibitor]: 0, 600 MG/L IN DRINKING WATER FOR DURATION OF STUDY BEGINNING 4 D POST CARCINOGEN TREATMENT(STUDY DURATION: 6 MO), Route [Inhibitor]: ORAL, Species: RAT, Strain/Sex: BD6/FEMALE, Target Tissue: Type of Lesion: ESOPHAGUS: TUMOR, Dose [Carcinogen]: 80 MG/KG BW 1/WK FOR 9 WK, Promoter: NONE USED","29%, 21%, 28%, not significant"
same,"tumour outcome (control, treated, inhibition, significance)","Carcinogen: DIETHYLNITROSAMINE, 55-18-5, Dose [Inhibitor]: 0, 600 MG/L IN DRINKING WATER FOR DURATION OF STUDY BEGINNING 7 D PRIOR TO CARCINOGEN TREATMENT (STUDY DURATION: 6 MO), Route [Inhibitor]: ORAL, Species: RAT, Strain/Sex: BD6/FEMALE, Target Tissue: Type of Lesion: ESOPHAGUS: TUMOR, Dose [Carcinogen]: 80 MG/KG BW 1/WK FOR 5 WK, Promoter: NONE USED","6%, 11%, -83%, not significant"
same,"tumour outcome (control, treated, inhibition, significance)","Carcinogen: DIETHYLNITROSAMINE, 55-18-5, Dose [Inhibitor]: 0, 600 MG/L IN DRINKING WATER FOR DURATION OF STUDY BEGINNING 7 D PRIOR TO CARCINOGEN TREATMENT (STUDY DURATION: 6 MO), Route [Inhibitor]: ORAL, Species: RAT, Strain/Sex: BD6/FEMALE, Target Tissue: Type of Lesion: LIVER: TUMOR, Dose [Carcinogen]: 80 MG/KG BW 1/WK FOR 5 WK, Promoter: NONE USED","44%, 41%, 7%, not significant"
same,"tumour outcome (control, treated, inhibition, significance)","Carcinogen: DIETHYNITROSAMINE, 55-18-5, Dose [Inhibitor]: 0, 600 MG/L IN DRINKING WATER BEGINNING 3 D PRIOR TO FIRST CARCINOGEN DOSE AND CONTINUING TO 14 D POST LAST CARCINOGEN D, Route [Inhibitor]: ORAL, Species: RAT, Strain/Sex: BD6/FEMALE, Target Tissue: Type of Lesion: LIVER: TUMOR, Dose [Carcinogen]: 80 MG/KG BW 1/WK FOR 8 WK, Promoter: NONE USED","82%, 72%, 12%, not significant"
same,"tumour outcome (control, treated, inhibition, significance)","Carcinogen: N,N-DIETHYLNITROSAMINE, 55-18-5, Dose [Inhibitor]: 600 MG/L IN DRINKING WATER DAILY STARTING 3 D BEFORE START OF CARCINOGEN INJECTION AND CONTINUING UNTIL 2 WK AFTER LAST, Route [Inhibitor]: ORAL, Species: RAT, Strain/Sex: BDIV AND WISTAR/MALE, Target Tissue: Type of Lesion: LIVER: TUMOR, Dose [Carcinogen]: 80 MG/KG BW IN 0.2 ML 0.9% SALINE 1/WK FOR 10 WK, Promoter: NONE USED","18/22 (82%), 12/18 (67%), 18%, not calculated"
same,"tumour outcome (control, treated, inhibition, significance)","Carcinogen: N-METHYL-N'-NITRO-N-NITROSOGUANIDINE, 70-25-7, Dose [Inhibitor]: 0, 0.25% IN DRINKING WATER FOR 32 WK BEGINNING POST CARCINOGEN TREATMENT (STUDY DURATION: 40 WK), Route [Inhibitor]: ORAL, Species: RAT, Strain/Sex: WISTAR/MALE, Target Tissue: Type of Lesion: GLANDULAR STOMACH (PYLORUS): ADENOCARCINOMA, Dose [Carcinogen]: 100 PPM IN DRINKING WATER FOR 8 WK, Promoter: SODIUM CHLORIDE, 7647-14-5","4/29 (14%), 0/28 (0%), 100%, p<0.05"
same,"tumour outcome (control, treated, inhibition, significance)","Carcinogen: N-METHYL-N-NITROSOUREA, 684-93-5, Dose [Inhibitor]: 0, 500 MG/L IN DRINKING WATER BEGINNING AT 60 D OF AGE AND CONTINUING FOR DURATION OF STUDY (STUDY DURATION: 26 WK), Route [Inhibitor]: ORAL, Species: RAT, Strain/Sex: SPRAGUE-DAWLEY/FEMALE, Target Tissue: Type of Lesion: MAMMARY GLAND: CARCINOMA, Dose [Carcinogen]: 2.5 MG/100 G BW ONCE AT 57 D OF AGE, Promoter: NONE USED","34/40 (85%), 31/40 (78%), 8%, not significant"
same,"tumour outcome (control, treated, inhibition, significance)","Carcinogen: N-METHYL-N-NITROSOUREA, 684-93-5, Dose [Inhibitor]: 0, 500 UG/L IN DRINKING WATER BEGINNING AT 29 D OF AGE AND CONTINUING TO D 60 OF AGE (STUDY DURATION: 30 WK), Route [Inhibitor]: ORAL, Species: RAT, Strain/Sex: SPRAGUE-DAWLEY, Target Tissue: Type of Lesion: MAMMARY GLAND: CARCINOMA, Dose [Carcinogen]: 2.5 MG/100 G BW ONCE AT 57 D OF AGE, Promoter: NONE USED","34/40 (85%), 32/40 (80%), 6%, not significant"
same,"tumour outcome (control, treated, inhibition, significance)","Carcinogen: SUBCUTANEOUS, Dose [Inhibitor]: 4-(METHYLNITROSAMINO)-1-(3-PYRIDYL-1-BUTANONE), 64091-91-4, Route [Inhibitor]: 0, 680 PPM IN DRINKING WATER FOR 22 WK BEGINNING 1 WK PRIOR TO CARCINOGEN TREATMENT (STUDY DURATION: 101 WK), Species: RAT, Strain/Sex: ORAL, Target Tissue: Type of Lesion: LIVER :TUMOR, Dose [Carcinogen]: NONE USED","11/32 (34%), 8/20 (40%), -18%, not significant"
same,"tumour outcome (control, treated, inhibition, significance)","Carcinogen: URETHANE, 51-79-6, Dose [Inhibitor]: 0.05 UMOL/G BW GIVEN AT 6 HR INTERVALS DURING THE PERIOD OF 0 TO 36 HR AFTER CARCINOGEN TREATMENT FOR 7 INJECTIONS FOLLO, Route [Inhibitor]: INTRAPERITONEAL, Species: MOUSE, Strain/Sex: ICR/FEMALE, Target Tissue: Type of Lesion: LUNG: PAPILLARY ADENOMA, Dose [Carcinogen]: 0.1 MG/G BW SINGLE INJECTION, Promoter: NONE USED","31/59 (53%), 7/32 (22%), 58%, p<0.01"
